Results taken from patent US8039430B2 (University of Wollongong, priority 2005, dated 2011).
Read-outs that look alike come from different tables or passages of the source.

Columns and labels:
E.f449 = assay: Antibacterial screening (MIC) of compounds of Example 2, E.f449; format: cell-based, Enterococcus faecium; conditions: for MIC: Enterococcus faecium, read-out: Antibacterial activity μg/mL, E.f449
Description: (§1) • All assays used the Staphylococcus aureus strain ATCC 6538P. • Assays described in Chapter 5 additionally used the vancomycin-resistant enterococci and vancomycin-sensitive enterococci strains Ef243, Ef449, Ef820 and Ef487. Culture Media • Mueller-Hinton Broth Medium (MHB): MHB (Oxoid CM405) was prepared with final concentrations of […] MgCl2 and 2 μg/mL CaCl2. Culture medium was pre-warmed for approximately 2-3 h at 37° C. before use. • Mueller-Hinton Agar Medium (MHA): MMB containing 1.5% Agar (Merck Agar 1.01614). Maintenance of Bacteria • From a thawed cryovial, the bacteria was streaked onto MHA and the plate incubated overnight at 37° C. • From this plate, 10 cryovials were prepared by looping several colonies into 0.5 mL of 20% glycerol solution. The cryovials were immediately stored at −140° C. Preparation of Seed Cultures • A cryovial was removed from −140° C. storage and thawed at room temperature. • An MHA plate was streaked with a loopful of bacterial suspension and incubated overnight at 37° C. to create a parent plate (P1). • A daughter plate (D1) was streaked from the parent plate and incubated overnight at 37° C. […] The second parent plate (P2) was used to generate two additional daughter plates using the procedure outlined above before being discarded. • Cryovials were used twice to prepare parent plates (P1 and P2) before being discarded. […] A vancomycin control set (triplicate) and a compound negative control set (triplicate) were also included on each plate (FIG. 1). • The inoculated culture medium was incubated at 37° C. for 30 min, with shaking at 130 rpm. • Using a multichannel pipette, the contents of the first row were mixed before 50 μL was transferred to the second row. The pipette tips were changed and the process repeated by 50 μL of the mixed broth solutions in the second row being transferred to the third row. This process was repeated until the last row contained either the diluted test compound or a control (vancomycin or compound-negative). […] Antibacterial Testing of Compounds of Example 2 Introduction
(§2) The specific testing procedures and protocols are outlined in the section “Antibacterial Screening Methodology for the Compounds of Example 2”.
(§3) Vancomycin was used as the standard/control.

E.f987 = assay: Antibacterial screening (MIC) of compounds of Example 2, E.f987; format: cell-based, Enterococcus faecium; conditions: for MIC: Enterococcus faecium, read-out: Antibacterial activity μg/mL, E.f987
E.f820 = assay: Antibacterial screening (MIC) of compounds of Example 2, E.f820; format: cell-based, Enterrococci faecium; conditions: for MIC: read-out: Antibacterial activity μg/mL, E.f820
Description: as §1, §2, §3

E.f243 = assay: Antibacterial screening (MIC) of compounds of Example 2, E.f243; format: cell-based, Enterococcus faecium; conditions: for MIC: Enterococcus faecium, read-out: Antibacterial activity μg/mL, E.f243
Description: as §1, §2, §3

[1] = system: Staphylococcus aureus strain ATCC 6538P; assay: Antibacterial screening (MIC) of compounds of Example 2, S. aureus, Mueller-Hinton broth; format: cell-based; conditions: for MIC: Staphylococcus aureus, ATCC6538P, read-out: Antibacterial activity μg/mL, S.a
Description: Antibacterial Screening Methodology for Compounds of Example 2
as §1, §2
The antibacterial activity results are measured by minimum inhibitory concentration (MIC), which is the lowest concentration of compound necessary to prevent bacterial growth.

[2] = Example 2 compounds, enterococci strain E.f449
[3] = Example 2 compounds, enterococci strain E.f987
[4] = Example 2 compounds, fully vancomycin-resistant strain E.f820
[5] = Example 2 compounds, enterococci strain E.f243
[6] = Example 2 compounds (linear cationic peptides), S. aureus, vancomycin-susceptible strain

Row | SMILES | MIC (E.f449; [2]) [µg/mL] | MIC (E.f987; [3]) [µg/mL] | MIC (E.f820; [4]) [µg/mL] | MIC (E.f243; [5]) [µg/mL] | MIC [1, 6] [µg/mL] | other results
1 | CCCOc1ccc2ccccc2c1-c1c(OCC(=O)N[C@H](CCCCN)C(=O)N[C@H](CCCNC(=N)N)C(=O)N[C@@H](CCC)C(=O)OCc2ccccc2)ccc2ccccc12.Cl.Cl (atropisomer, axis not shown) [Compound 141, Benzyl(2S,5R,8R)-3,6,9-triaza-8-(4-aminobutyl)-5-(3-guanidinopropyl)-4,7,10-trioxo-2-propyl-11-(2-[2′-3-(propyloxy)-{1,1′}-(S)-binaphthalen-2-yloxy])undecanoate] | 31.3 | 62.5 | 31.2 | 31.3 | 3.9 | –
2 | C=CC[C@H](NC(=O)[C@H](CCCCN)NC(=O)[C@H](Cc1ccc(-c2c3ccccc3cc3ccccc23)cc1)NC(C)=O)C(=O)OC.Cl [Compound 118, Methyl(2S,5S,8S)-2-allyl-5-(4-aminobutyl)-8-(4-[9-anthrecenyl]benzyl)-3,6,9-triaza-5-butylamino-4,7,10-trioxoundecanoate hydrochloride] | > 125 | > 125 | > 125 | > 125 | 31.3 | –
3 | C=CC[C@H](NC(=O)[C@H](CCCCN)NC(=O)[C@H](Cc1ccc(-c2cc3ccccc3c3ccccc23)cc1)NC(C)=O)C(=O)OC.Cl [Compound 119] | > 125 | > 125 | > 125 | > 125 | 15.6 | –
4 | C=CC[C@H](NC(=O)[C@@H](CCCNC(=N)N)NC(=O)[C@H](NCCCC)NC(=O)COc1ccc2ccccc2c1-c1c(OCc2ccccc2)ccc2ccccc12)C(=O)OCc1ccccc1.Cl.Cl [Compound 134, Benzyl(2S,5R,8R)-2-allyl-3,6,9-triaza-11-(2-[2′-benzyloxy-{1,1′}-(S)-binaphthalen-2-yloxy])-8-(butylamino)-5-(3-guanidinopropyl)-4,7,10-trioxoundecanoate dihydrochloride] | – | – | – | – | – | Antibacterial activity μg/mL, E.f449 (E.f449; [2]): 62.5 µg/mL; Antibacterial activity μg/mL, E.f987 (E.f987; [3]): 125 µg/mL; Antibacterial activity μg/mL, E.f820 (E.f820; [4]): 62.5 µg/mL; Antibacterial activity μg/mL, E.f243 (E.f243; [5]): 62.5 µg/mL; Antibacterial activity μg/mL, S.a [1, 6]: 3.9 µg/mL
5 | C=CC[C@H](NC(=O)[C@@H](CCCNC(=N)N)NC(=O)[C@@H](CCCCN)NC(=O)[C@H](Cc1ccc(-c2c3ccccc3cc3ccccc23)cc1)NC(C)=O)C(=O)OCc1ccccc1.Cl.Cl [Compound 139, Benzyl(2S,5R,8R,11S)-2-allyl-8-(4-aminobutyl)-11-(4-[9-anthracenyl]benzyl)-3,6,9,12-tetraaza-5-(3-guanidinopropyl)-4,7,10,13-tetraoxotetradecanoate] | > 125 | > 125 | > 125 | > 125 | 15.6 | –
6 | C=CC[C@H](NC(=O)[C@@H](CCCNC(=N)N)NC(=O)[C@@H](CCCCN)NC(=O)[C@H](Cc1ccc(-c2cc3ccccc3c3ccccc23)cc1)NC(C)=O)C(=O)OCc1ccccc1.Cl.Cl [Compound 140, Benzyl(2S,5R,8R,11S)-2-allyl-8-(4-aminobutyl)-3,6,9,12-tetraaza-5-(3-guanidinopropyl)-4,7,10,13-tetraoxo-11-(4-[9-phenanthrenyl]benzyl)tetradecanoate] | – | – | – | – | – | MIC (E.f449): > 125 µg/mL; MIC (E.f987): > 125 µg/mL; MIC (E.f820): > 125 µg/mL; MIC (E.f243): > 125 µg/mL; MIC [1]: 7.8 µg/mL
7 | C=CCOc1ccc2ccccc2c1-c1c(OCC(=O)N[C@H](CCCN)C(=O)Nc2cccc(C(=O)OC)c2)ccc2ccccc12.Cl [Compound 155, Methyl(3R)-3-(6-(2-[2′-allyloxy-{1,1′}-(S)-binaphthalen-2-yloxy])-3-(3-aminopropyl)-1,4-diaza-2,5-dioxohexyl)benzoate hydrochloride] | – | – | – | – | – | Antibacterial activity μg/mL, E.f449 (E.f449; [2]): 125 µg/mL; Antibacterial activity μg/mL, E.f987 (E.f987; [3]): >125 µg/mL; Antibacterial activity μg/mL, E.f820 (E.f820; [4]): 125 µg/mL; Antibacterial activity μg/mL, E.f243 (E.f243; [5]): >125 µg/mL; Antibacterial activity μg/mL, S.a [1, 6]: 7.8 µg/mL
8 | C=CCOc1ccc2ccccc2c1-c1c(OCC(=O)N[C@H](CCCN)C(=O)Nc2cccc(C(=O)OCc3ccccc3)c2)ccc2ccccc12.Cl [Compound 157, Benzyl(3R)-3-(6-(2-[2′-allyloxy-{1,1′}-(S)-binaphthalen-2-yloxy])-3-(3-aminopropyl)-1,4-diaza-2,5-dioxohexyl)benzoate hydrochloride] | – | – | – | – | – | Antibacterial activity μg/mL, E.f449 (E.f449; [2]): 125 µg/mL; Antibacterial activity μg/mL, E.f987 (E.f987; [3]): >125 µg/mL; Antibacterial activity μg/mL, E.f820 (E.f820; [4]): 125 µg/mL; Antibacterial activity μg/mL, E.f243 (E.f243; [5]): >125 µg/mL; Antibacterial activity μg/mL, S.a [1, 6]: 15.6 µg/mL
9 | C=CCOC(=O)c1cccc(NC(=O)[C@@H](CCCN)NC(=O)COc2ccc3ccccc3c2-c2c(OCC=C)ccc3ccccc23)c1.Cl [Compound 159, Allyl(3R)-3-(6-(2-[2′-allyloxy-{1,1′}-(S)-binaphthalen-2-yloxy])-3-(3-aminopropyl)-1,4-diaza-2,5-dioxohexyl)benzoate hydrochloride] | – | – | – | – | – | Antibacterial activity μg/mL, E.f449 (E.f449; [2]): 125 µg/mL; Antibacterial activity μg/mL, E.f987 (E.f987; [3]): >125 µg/mL; Antibacterial activity μg/mL, E.f820 (E.f820; [4]): 62.5 µg/mL; Antibacterial activity μg/mL, E.f243 (E.f243; [5]): 125 µg/mL; Antibacterial activity μg/mL, S.a [1, 6]: 62.5 µg/mL

Now from value to compound, other results behind:

Row | MIC (E.f449; [2]) [µg/mL] | MIC (E.f987; [3]) [µg/mL] | MIC (E.f820; [4]) [µg/mL] | MIC (E.f243; [5]) [µg/mL] | MIC [1, 6] [µg/mL] | SMILES | other results
10 | 125 | 62.5 | 62.5 | 125 | 3.9 | C=CCOc1ccc2ccccc2c1-c1c(OCC(=O)N[C@H](CCCNC(=N)N)C(=O)Nc2cccc(C(=O)OC)c2)ccc2ccccc12.Cl (atropisomer, axis not shown) [Compound 156, Methyl(3R)-3-(6-(2-[2′-allyloxy-{1,1′}-(S)-binaphthalen-2-yloxy])-1,4-diaza-3-(3-guanidylpropyl)-2,5-dioxohexyl)benzoate hydrochloride] | –
11 | 62.5 | 62.5 | 31.3 | 62.5 | 7.8 | C=CCOc1ccc2ccccc2c1-c1c(OCC(=O)N[C@H](CCCNC(=N)N)C(=O)Nc2cccc(C(=O)OCc3ccccc3)c2)ccc2ccccc12.Cl (atropisomer, axis not shown) [Compound 158, Benzyl(3R)-3-(6-(2-[2′-allyloxy-{1,1′}-(S)-binaphthalen-2-yloxy])-1,4-diaza-3-(3-guanidylpropyl)-2,5-dioxohexyl)benzoate hydrochloride] | –
12 | 62.5 | 125 | 62.5 | 62.5 | 7.8 | C=CCOC(=O)c1cccc(NC(=O)[C@@H](CCCNC(=N)N)NC(=O)COc2ccc3ccccc3c2-c2c(OCC=C)ccc3ccccc23)c1.Cl (atropisomer, axis not shown) [Compound 160, Allyl(3R)-3-(6-(2-[2′-allyloxy-{1,1′}-(S)-binaphthalen-2-yloxy])-1,4-diaza-3-(3-guanidinopropyl)-2,5-dioxohexyl)benzoate hydrochloride] | –
13 | > 125 | > 125 | > 125 | > 125 | 3.9 | C=CCOc1ccc2ccccc2c1-c1c(OCC(=O)N[C@H](CCCNC(=N)N)C(=O)Nc2cccc(C(=O)NOCc3ccccc3)c2)ccc2ccccc12.Cl (atropisomer, axis not shown) [Compound 162] | –
14 | > 125 | > 125 | > 125 | > 125 | 7.8 | CCCOc1ccc2ccccc2c1-c1c(OCC(=O)N[C@H](CCCNC(=N)N)C(=O)Nc2cccc(C(=O)NO)c2)ccc2ccccc12.Cl (atropisomer, axis not shown) [Compound 164] | –
